Series [1] concerns 4T1 breast cancer cell. The class given is in vivo. As to conditions: 2 μg/kg cisplatin (CDDP alone printed 2 g/kg), 50 μg/mouse CpG, 50 μg/mouse R848.
Series [2] deals with B16-F10 mouse melanoma. Briefly: B16-F10 mouse melanoma model, small-volume tumors (Example 9). The class given is in vivo. As to conditions: 4 mg/kg cisplatin, intraperitoneal injection, days 7, 14, 21. How it is done:
This example further explored the effect of cisplatin combined with CR108 adjuvant on mouse melanoma. A B16-F10 mouse melanoma model was constructed by subcutaneously inoculating tumor cells on the right side of the back of the mice proximal to the hip position at 3×10^5 cells/mouse, […]
Specific mouse administration groups were as follows: (1) a PBS negative control group, (2) CDDP^Lo (2 μg/kg cisplatin), (3) CR108 (50 μg/mouse CpG1018 and 50 μg/mouse water-soluble R848), (4) CDDP^Lo+CR108 (2 μg/kg cisplatin, 50 μg/mouse CpG1018 and 50 μg/mouse water-soluble R848), (5) CDDP^Lo+C′ (2 μg/kg cisplatin and 50 μg/mouse CpG1018), (6) CDDP^Lo+R (2 μg/kg cisplatin and 50 μg/mouse water-soluble R848), and (7) CDDP^Hi (4 mg/kg cisplatin, regular cisplatin chemotherapeutic drug dose). Except for Group (7), which received a high dose of cisplatin by intraperitoneal injection, all other groups were administered by subcutaneous injection near the tumor. […]
On day 4 after the last administration, mice were sacrificed, tumor tissues of the mice were separated and weighed using an analytical balance; the weights were recorded, and the tumors were photographed for recording. […]

Series [3] concerns B16-F10 mouse melanoma. As to the kind of experiment: Large-volume B16-F10 melanoma model, intratumoral injection: tumor volume and survival (Examples 10-13). Type of series: in vivo. How it is done: To establish a B16-F10 mouse melanoma model, the tumor cells were inoculated at 3×10^5 cells/mouse. Once the tumors reached an appropriate size with an average of about 200 mm^3, suitable mice were selected based on the tumor size and body weight and given drugs according to the following groups. […] Specific groups were as follows: Group G1, normal saline (NS) control group: mice were treated once a week; Group G2: mice received an intratumoral injection of CDDP, followed by an intratumoral injection of CR108 two days later, once a week; Group G3: for each administration cycle, mice first received an intratumoral injection of CDDP, followed by an intratumoral injection of CR108 two days later, which was repeated every other day, with four administrations constituting one cycle, and after a one-week interruption, the next administration cycle was repeated; and Group G4: after CDDP and CR108 were mixed, mice received an intratumoral injection of the mixture, twice a week. After the administration was completed according to the flowchart, the administration was stopped, and the tumor size and physiological states of the mice were monitored during this period. When the tumor volume of each mouse exceeded 2000 mm^3 for the first time or the body weight of the animal was less than 80% of the body weight before the first administration, it was considered an ethical death, and the animal was euthanized. The remaining mice continued to be observed.
Experimental groups were as follows: (1) a normal saline control group, with the same administration protocol as that in Group G1 of Example 10; (2) CDDP^Hi+CR108 (at a cisplatin dose of 0.4 mg/kg), with the same administration protocol as that in Group G2 of Example 10 (qw); (3) CDDP^Lo+CR108 (at a cisplatin dose of 2 μg/kg), with the same administration protocol as that in Group G3 of Example 10 (qod); and (4) CDDP^Hi+CR108 (0.4 mg/kg cisplatin), with the same administration protocol as that in Group G3 of Example 10 (qod); the dose of CR108 used in each group was 50 μg/mouse CpG1018 and 50 μg/mouse water-soluble R848. […]

The subject of series [4] is BALB/c mouse spleen cells. As to the kind of experiment: In vitro stimulation of mouse spleen cells to secrete TNF-α. The class given is cell-based. As to conditions: FIG. 9; stimulated 18-20 h; research-grade versus pharmaceutical grade reagent. On the procedure:
Drug preparation: The preparation and use of the research-grade reagents CpG1826 and R848 (water soluble) were the same as those in Example 1; the pharmaceutical agent R848 (lipid soluble) was dissolved in DMSO to prepare a 10 mg/mL stock solution, 0.1 mL of the stock solution was taken for each administration, the volume was brought to 1 mL, and a 1 mg/mL solution was prepared; CpG1018 was prepared at 1 mg/ml with PBS before each administration.
The spleens of three blank BABL/c mice were added to a 30 mm cell culture dish, 1640 medium was added, and the resulting mixture was ground, filtered through a copper screen, and centrifuged at 1500 rpm for 3 min. The supernatant was discarded, 2 mL of a red blood cell lysis buffer was added, and the samples were left to stand for 2 min, terminated with 4 mL of 1640+10% FBS, and centrifuged at 1500 rpm for 3 min. The supernatant was discarded, the samples were resuspended in 1640+10% FBS, and the cells were counted. The cells were plated in a 96-well cell culture plate at 2×10^6 cells/well, with 200 μL of culture medium per well. […] After the cells were stimulated for 18-20 h, the cell culture supernatant was collected, and the expression of cytokines in each 10^6 mouse spleen cells was determined by using a mouse TNF-α detection kit (purchased from NeoBioscience Technology Co., Ltd., Catalog No. EMC102a.96) according to the instructions.

Regarding `[NH2][Pt]([NH2])([Cl])[Cl]` [CDDP, cisplatin], the “tumor volume growth curve” value in series [1] (Example 7, FIG. 12, 6 mice per group) is “grew rapidly”. The tumor weight entry in series [1] (Example 7, FIG. 13, end of the experiment) is “too large and overweight”. Also, the “mouse death during the administration period” value in series [2] is “One mouse”. Also, the “tumor volume compared with the normal saline control group” value in series [3] (Example 12, FIG. 31, day 28, CDDP 4 mg/kg once a week, CR108 G3 protocol, CDDP+CR108 0.4 mg/kg cisplatin G3 protocol) is on record as “significantly lower than that in the normal saline control group”. For the same compound, the “day on which all mice were euthanized due to tumor volume exceeding 2000 mm^3” value in series [3] (Example 12, 4 mg/kg CDDP once a week) came to 36 days. In addition, the median survival time in series [3] (Example 12, CDDP 4 mg/kg once a week, CR108 alone G3 protocol, CDDP+CR108 0.4 mg/kg CDDP, not counted on day 45, saline control 26 days) amounted to 36 days.

For the compound `CCOCc1nc2c(N)nc3ccccc3c2n1CC(C)(C)O` [R848 (water soluble)], the “levels of TNF-α cytokines produced from mouse spleen cells stimulated in vitro” value in series [4] is “comparable”.

The values above are taken from patent US20260048081A1, “COMBINED TREATMENT COMPOSITION FOR TUMOR TREATMENT AND COMBINED TREATMENT METHOD” (ADVACCINE (SUZHOU) BIOPHARMACEUTICALS CO., LTD., priority 2022, published 2026).
